Laboratory results published in US20110077402A1, “ADMINISTRATION OF DIPEPTIDYL PEPTIDASE INHIBITORS” (priority 2007, published 2011).

System: plasma glucose
Assay: Effect of co-administration with pioglitazone on plasma glucose in db/db mice
Type: in vivo
Conditions: male db/db mice, 21 days in powder chow (0.03% succinate salt of Compound I and/or 0.0075% pioglitazone hydrochloride), feeding condition, average (n=7) ± standard deviation; control 472.9 ± 74.6
Text: Male db/db (BKS.Cg-+Lepr^db/+Lepr^db) mice (6 weeks of age, CLEA Japan (Tokyo, Japan)) were divided into 4 groups (n=7 in each group) comprising Group A to Group D. Group A had free access to CE-2 powder chow (CLEA Japan) for 21 days. […] During 21 days of administration of the powder chow, there were not significant differences in the administration amount of the powder chow in the above 4 groups. After 21 days of administration of the powder chow, blood samples were taken from the orbital veins of the mice by capillary pipette under feeding condition, and plasma glucose levels were enzymatically measured by using Autoanalyzer 7080 (Hitachi, Japan). The values in the table means average (n=7)±standard deviation.

## Cn1c(=O)cc(N2CCC[C@@H](N)C2)n(Cc2cc(F)ccc2C#N)c1=O [Compound I, 2-[6-(3-Amino-piperidin-1-yl)-3-methyl-2,4-dioxo-3,4-dihydro-2H-pyrimidin-1-ylmethyl]-4-fluoro-benzonitrile]
  Plasma Glucose: 410.3 ± 47.9 mg/dL

## CCc1ccc(CCOc2ccc(CC3SC(=O)NC3=O)cc2)nc1 (centres unmarked) [Pioglitazone, 5-{[4-(2-(5-ethyl-2-pyridyl)ethoxy)phenyl]-methyl}-thiazolidine-2,4-dione]
  Plasma Glucose: 394.4 ± 47.9 mg/dL
